Where two headings read alike, the source gives them in different places.
Key:
[1] = test system: leafspot infestation; details: cited from earlier work; for Def (0.42) defoliation: 0.42 kg chlorothalonil per ha; for Def (0.84) defoliation: 0.84 kg chlorothalonil per ha; for Def (1.26) defoliation: 1.26 kg chlorothalonil per ha
[2] = cited from earlier work
[3] = Particle size (Sedigraph 5100T) of chlorothalonil milled with 0.4–0.5 mm zirconium silicate; type: physicochemical
[4] = Particle size (Sedigraph 5100T) of chlorothalonil milled with 0.5–0.6 mm cerium-doped zirconium oxide; type: physicochemical
Procedure: The laboratory-sized vertical mill was provided by CB Mills, model# L-3-J. The mill has a 2 liter capacity and is jacketed for cooling. Unless otherwise specified, ambient water was cycled through the mill cooling jacket during operation. The internal dimensions are 3.9″ diameter by 9.1″ height. The mill uses a standard 3×3″ disk agitator (mild steel) on a stainless steel shaft, and it operates at 2,620 rpm.
The media used in this Example was 0.4–0.5 mm zirconium silicate beads supplied by CB Mills. All particle size determinations were made with a Sedigraph™ 5100T manufactured by Micromeritics, which uses x-ray detection and bases calculations of size on Stokes' Law.
The same mill and conditions were used in this experiment as in experiment 1. However, the grinding media was 0.5–0.6 mm cerium-doped zirconium oxide beads obtained from CB Mills. The density of the cerium doped zirconium oxide is ˜6.0 g/cm^3. […] The total batch weight was about 600 g.

[5] = cited from earlier work; remark: listed apart in the source
[6] = milling time 0 mins, 0.4–0.5 mm zirconium silicate beads
[7] = milling time 30 mins, 0.4–0.5 mm zirconium silicate beads
[8] = milling time 60 mins, 0.4–0.5 mm zirconium silicate beads
[9] = milling time 90 mins, 0.4–0.5 mm zirconium silicate beads
[10] = milling time 120 mins, 0.4–0.5 mm zirconium silicate beads
[11] = milling time 150 mins, 0.4–0.5 mm zirconium silicate beads
[12] = milling time 180 mins, 0.4–0.5 mm zirconium silicate beads
[13] = milling time 270 mins, 0.4–0.5 mm zirconium silicate beads
[14] = milling time 450 mins, 0.4–0.5 mm zirconium silicate beads
[15] = milling time 0 mins, 0.5–0.6 mm cerium-doped zirconium oxide beads
[16] = milling time 90 mins, 0.5–0.6 mm cerium-doped zirconium oxide beads
[17] = milling time 240 mins, 0.5–0.6 mm cerium-doped zirconium oxide beads
[18] = 0.1 cm zirconium beads, 3000 rpm, 10 minutes, US 2004/0024099
[19] = 0.1 cm zirconia, 70% to 80% loading, 10 minutes, US 2004/0063847, 2003/0040569

Q: Which results are given for `N#Cc1c(Cl)c(Cl)c(Cl)c(C#N)c1Cl` [Air, chlorothalonil]?
A: Def (0.42) defoliation ([1]; 1974 data, air milled): 39; Def (0.84) defoliation ([1]; 1974 data, air milled): 25; Def (1.26) defoliation ([1]; 1974 data, air milled): 19; Def (0.42) defoliation ([1]; 1975 data, air milled): 35; Def (0.84) defoliation ([1]; 1975 data, air milled): 34; Def (1.26) defoliation ([1]; 1975 data, air milled): 27; <1μ, % (percentage of particles with a diameter less than 1 micron) ([2]; 1974 data, air milled): 7%; med. μ (median diameter in microns) ([2]; 1974 data, air milled): 3.3 microns; <1μ, % (percentage of particles with a diameter less than 1 micron) ([2]; 1975 data, air milled): 5%; med. μ (median diameter in microns) ([2]; 1975 data, air milled): 3.3 microns

Q: For `N#Cc1c(Cl)c(Cl)c(Cl)c(C#N)c1Cl` [Wet, chlorothalonil], which “Def (0.42) defoliation” value ([1]; 1974 data, wet milled 3 hr) is on record?
A: 33

Q: And the “Def (0.84) defoliation” value ([1]; 1974 data, wet milled 3 hr)?
A: 24

Q: What about the “Def (1.26) defoliation” value ([1]; 1974 data, wet milled 3 hr) of the same molecule?
A: 15.5

Q: And the “Def (0.42) defoliation” value ([1]; 1974 data, wet milled 9 hr)?
A: 32

Q: And the “Def (0.84) defoliation” value ([1]; 1974 data, wet milled 9 hr)?
A: 17.2

Q: And the “Def (1.26) defoliation” value ([1]; 1974 data, wet milled 9 hr)?
A: 14.1

Q: And the “Def (0.42) defoliation” value ([1]; 1974 data, wet milled 13 hr)?
A: 27

Q: And the “Def (0.84) defoliation” value ([1]; 1974 data, wet milled 13 hr)?
A: 23

Q: And the “Def (1.26) defoliation” value ([1]; 1974 data, wet milled 13 hr)?
A: 15.4

Q: And the “Def (0.42) defoliation” value ([1]; 1975 data, wet milled 3 hr)?
A: 35

Q: What about the “Def (0.84) defoliation” value ([1]; 1975 data, wet milled 3 hr) of the same molecule?
A: 28

Q: And the “Def (1.26) defoliation” value ([1]; 1975 data, wet milled 3 hr)?
A: 28

Q: What about the “Def (0.42) defoliation” value ([1]; 1975 data, wet milled >9 hr) of the same molecule?
A: 32

Q: And the “Def (0.84) defoliation” value ([1]; 1975 data, wet milled >9 hr)?
A: 29

Q: What about the “Def (1.26) defoliation” value ([1]; 1975 data, wet milled >9 hr) of the same molecule?
A: 29

Q: And the “<1μ, % (percentage of particles with a diameter less than 1 micron)” value ([2]; 1974 data, wet milled 3 hr)?
A: 8%

Q: What about the “med. μ (median diameter in microns)” value ([2]; 1974 data, wet milled 3 hr) of the same molecule?
A: 3.8 microns

Q: And the “<1μ, % (percentage of particles with a diameter less than 1 micron)” value ([2]; 1974 data, wet milled 9 hr)?
A: 22%

Q: And the “med. μ (median diameter in microns)” value ([2]; 1974 data, wet milled 9 hr)?
A: 1.75 microns

Q: And the “<1μ, % (percentage of particles with a diameter less than 1 micron)” value ([2]; 1974 data, wet milled 13 hr)?
A: 24%

Q: And the “med. μ (median diameter in microns)” value ([2]; 1974 data, wet milled 13 hr)?
A: 1.6 microns

Q: And the “<1μ, % (percentage of particles with a diameter less than 1 micron)” value ([2]; 1975 data, wet milled 3 hr)?
A: 10%

Q: What about the “med. μ (median diameter in microns)” value ([2]; 1975 data, wet milled 3 hr) of the same molecule?
A: 3.7 microns

Q: What about the “<1μ, % (percentage of particles with a diameter less than 1 micron)” value ([2]; 1975 data, wet milled >9 hr) of the same molecule?
A: 22%

Q: What about the “med. μ (median diameter in microns)” value ([2]; 1975 data, wet milled >9 hr) of the same molecule?
A: 1.6 microns

Q: For `N#Cc1c(Cl)c(Cl)c(Cl)c(C#N)c1Cl` [chlorothalonil, 2,4,5,6-tetrachloro-1,3-dicyanobenzene], which d90 ([3]; at 60 minutes, 0.4–0.5 mm zirconium silicate media) is on record?
A: about 2 microns

Q: What about the starting particle size ([3]; before wet milling) of the same molecule?
A: 3–4 microns

Q: What about the “Volume % With Diameter Greater Than 2 μm” value [3, 6] of the same molecule?
A: 95 Volume %

Q: What about the “Volume % With Diameter Greater Than 5 μm” value [3, 6] of the same molecule?
A: 48 Volume %

Q: And the “Volume % With Diameter Greater Than 10 μm” value [3, 6]?
A: 10 Volume %

Q: What about the d50 [3, 6] of the same molecule?
A: 4.9 μm

Q: And the “Volume % With Diameter Greater Than 1 μm” value [3, 7]?
A: 68 Volume %

Q: And the “Volume % With Diameter Greater Than 2 μm” value [3, 7]?
A: 21 Volume %

Q: What about the “Volume % With Diameter Greater Than 5 μm” value [3, 7] of the same molecule?
A: 4 Volume %

Q: And the “Volume % With Diameter Greater Than 10 μm” value [3, 7]?
A: 0 Volume %

Q: And the d50 [3, 7]?
A: 1.3 μm

Q: What about the “Volume % With Diameter Greater Than 1 μm” value [3, 8] of the same molecule?
A: 50 Volume %

Q: And the “Volume % With Diameter Greater Than 2 μm” value [3, 8]?
A: 11 Volume %

Q: And the “Volume % With Diameter Greater Than 5 μm” value [3, 8]?
A: 2 Volume %

Q: What about the “Volume % With Diameter Greater Than 10 μm” value [3, 8] of the same molecule?
A: 4 Volume %

Q: What about the d50 [3, 8] of the same molecule?
A: 1.0 μm

Q: And the “Volume % With Diameter Greater Than 1 μm” value [3, 9]?
A: 94 Volume %

Q: And the “Volume % With Diameter Greater Than 2 μm” value [3, 9]?
A: 22 Volume %

Q: And the “Volume % With Diameter Greater Than 5 μm” value [3, 9]?
A: 23 Volume %

Q: And the “Volume % With Diameter Greater Than 10 μm” value [3, 9]?
A: 18 Volume %

Q: What about the d50 [3, 9] of the same molecule?
A: 1.4 μm

Q: And the “Volume % With Diameter Greater Than 2 μm” value [3, 10]?
A: 4 Volume %

Q: What about the “Volume % With Diameter Greater Than 5 μm” value [3, 10] of the same molecule?
A: 0 Volume %

Q: And the “Volume % With Diameter Greater Than 10 μm” value [3, 10]?
A: 2 Volume %

Q: And the “Volume % With Diameter Greater Than 1 μm” value [3, 11]?
A: 58 Volume %

Q: What about the “Volume % With Diameter Greater Than 2 μm” value [3, 11] of the same molecule?
A: 6 Volume %

Q: And the “Volume % With Diameter Greater Than 5 μm” value [3, 11]?
A: 2 Volume %

Q: What about the “Volume % With Diameter Greater Than 10 μm” value [3, 11] of the same molecule?
A: 0 Volume %

Q: What about the “Volume % With Diameter Greater Than 1 μm” value [3, 12] of the same molecule?
A: 53 Volume %

Q: What about the “Volume % With Diameter Greater Than 2 μm” value [3, 12] of the same molecule?
A: 7 Volume %

Q: And the “Volume % With Diameter Greater Than 5 μm” value [3, 12]?
A: 2 Volume %

Q: What about the “Volume % With Diameter Greater Than 10 μm” value [3, 12] of the same molecule?
A: 2 Volume %

Q: What about the “Volume % With Diameter Greater Than 1 μm” value [3, 13] of the same molecule?
A: 54 Volume %

Q: What about the “Volume % With Diameter Greater Than 2 μm” value [3, 13] of the same molecule?
A: 8 Volume %

Q: And the “Volume % With Diameter Greater Than 5 μm” value [3, 13]?
A: 0 Volume %

Q: And the “Volume % With Diameter Greater Than 10 μm” value [3, 13]?
A: 2 Volume %

Q: And the “Volume % With Diameter Greater Than 1 μm” value [3, 14]?
A: 56 Volume %

Q: And the “Volume % With Diameter Greater Than 2 μm” value [3, 14]?
A: 21 Volume %

Q: And the “Volume % With Diameter Greater Than 5 μm” value [3, 14]?
A: 8 Volume %

Q: And the “Volume % With Diameter Greater Than 10 μm” value [3, 14]?
A: 12 Volume %

Q: What about the d50 ([3]; within about one hour, 0.4–0.5 mm zirconium silicate media) of the same molecule?
A: ~1 micron

Q: What about the “increase in number of particles per unit of mass over the standard products (factor)” value ([4]; after 90 minutes of milling (first statement)) of the same molecule?
A: more than 30

Q: And the “increase in number of particles per unit of mass over the standard products (factor)” value ([4]; after 90 minutes of milling (second statement))?
A: more than 1000

Q: And the “Volume % With Diameter Greater Than 1 μm” value [4, 15]?
A: 92 Volume %

Q: And the “Volume % With Diameter Greater Than 2 μm” value [4, 15]?
A: 77 Volume %

Q: What about the “Volume % With Diameter Greater Than 5 μm” value [4, 15] of the same molecule?
A: 30 Volume %

Q: And the “Volume % With Diameter Greater Than 10 μm” value [4, 15]?
A: 8 Volume %

Q: What about the “Volume % With Diameter Greater Than 0.4 μm” value [4, 16] of the same molecule?
A: 22 Volume %

Q: And the “Volume % With Diameter Greater Than 1 μm” value [4, 16]?
A: 3 Volume %

Q: And the “Volume % With Diameter Greater Than 2 μm” value [4, 16]?
A: 3 Volume %

Q: What about the “Volume % With Diameter Greater Than 5 μm” value [4, 16] of the same molecule?
A: 3 Volume %

Q: What about the “Volume % With Diameter Greater Than 10 μm” value [4, 16] of the same molecule?
A: 3 Volume %

Q: And the d50 [4, 16]?
A: 0.31 μm

Q: What about the “Volume % With Diameter Greater Than 0.2 μm” value [4, 17] of the same molecule?
A: 51 Volume %

Q: And the “Volume % With Diameter Greater Than 0.4 μm” value [4, 17]?
A: 3 Volume %

Q: What about the “Volume % With Diameter Greater Than 1 μm” value [4, 17] of the same molecule?
A: 3 Volume %

Q: What about the “Volume % With Diameter Greater Than 2 μm” value [4, 17] of the same molecule?
A: 2 Volume %

Q: And the “Volume % With Diameter Greater Than 5 μm” value [4, 17]?
A: 1 Volume %

Q: And the “Volume % With Diameter Greater Than 10 μm” value [4, 17]?
A: 0 Volume %

Q: And the d50 [4, 17]?
A: 0.21 μm

Q: And the d50 ([4]; obtainable in 90 minutes, 0.5 mm zirconia milling media)?
A: less than 1 micron

Q: And the “mean volume diameter (d50)” value [5, 18]?
A: less than 3 microns

Q: And the “size that 90% of the number of particles are below” value [5, 18]?
A: below 0.5 microns

Q: And the “average particle size of the product” value ([5]; 40% chlorothalonil, 5.6% zinc oxide formulation, wet mill or high speed media mill, U.S. Pat. No. 5,667,795)?
A: 3 microns

Q: What about the “average particle size diameter” value ([5]; milled with 2 mm glass beads, U.S. Pat. No. 5,360,783 Test 5) of the same molecule?
A: 2.3 microns

Q: Which “diameter that 90% of the particles are below” value [5, 19] does the source give for `CC1OC(C)OC(C)OC(C)O1` (stereo not shown) [metaldehyde] here?
A: less than 2.5 microns

Q: And the mean volume diameter [5, 19]?
A: less than 1.5 microns

Q: For “manganese ethylenebis(dithiocarbamate) [Maneb]”, which mean particle diameter ([5]; milled with 2 mm glass beads, U.S. Pat. No. 5,360,783 Example 2) is on record?
A: 1.7–1.8 micons

Reference: patent publication US7316738B2, “Milled submicron chlorothalonil with narrow particle size distribution, and uses thereof” (Phibro-Tech, Inc., priority 2004, dated 2008)
